Where two headings read alike, the source gives them in different places.
Legend:
HBV = assay: In-vitro anti-HBV activity in stable HBV-producing cell line (HepG2.2.15), HBV DNA in culture fluid by qPCR; assay type: cell-based; conditions: Hepatitis B virus, 168 h; HepG2.2.15 cells, HBV DNA in culture media on day 7, qPCR
Experimental: Specific procedures are as follows:
HepG2.2.15 cells were seeded into each well of 96-well plates, 40,000 cells per well. Cells were treated with cell culture medium containing compounds with different concentrations 24 hours after cell seeding. The final concentration of each compound was 16.4 μM in each well and each compound was diluted to desired concentration using 3-fold gradient dilution protocol, 9 diluted points in duplicate. The culture mediums containing the compounds were refreshed on day 4 post cell seeding. Culture media were collected from the HepG2.2.15 plates on day 7 post cell seeding followed by HBV DNA extraction.
HBV DNA extraction: The HBV DNA extraction was performed using QIAamp 96 DNA Blood Kit (QIAGEN 51161).
PCR for quantification: PCR mix was prepared according to PCR system. PCR mix was dispensed to 96-well optical reaction plates (special for quantification). The standard diluted proportionally was added. Then the sample was added; The plates were sealed with optical adhesive film; PCR system was performed according to programs.
Percentage of HBV inhibition of DNA replication by compound was calculated using the following equation: % Inh.=[1-HBV DNA quantity of sample/HBV DNA quantity of DMSO control]*100.
Calculating EC50 value of compounds to HBV replication: the EC50 values were calculated based on “four-parameter logistic equation” and using GraphPad Prism 5 analysis software.

[1] = Test compounds' PK assay in ICR mice; assay type: in vivo; conditions: for AUC(0-t): AUC in 0-24 hours; for AUC(0-inf): AUC in 0 hour to infinite time; for Vd: read-out: Vss
Experimental: The test compounds were poured into ICR mice stomach through mouth with 10 mg/kg or 5 mg/kg, or administered 2 mg/kg to ICR mice by tail-intravenous injection. Blood sample of orbital vein was taken at 0.083, 0.25, 0.5, 1, 2, 4, 6, 8 and 24 hours after administration, and collected in anticoagulation tube added with EDTA-K2. The test compounds were extracted from plasma samples and chromatographed on a tandem mass spectrometer. Quantitation was performed using multiple reaction monitoring (MRM). Pharmacokinetic parameters were calculated using WinNonlin 6.3 software with non compartment model.

[2] = ICR mice, po 5 mg/kg vs iv 2 mg/kg, calculated by the AUClast
[3] = mouse, plasma, ICR mice, iv, 2 mg/kg
[4] = mouse, plasma, ICR mice, iv, 2 mg/kg, read-out: Cmax
[5] = mouse, plasma, ICR mice, iv, 2 mg/kg, read-out: Tmax
[6] = mouse, plasma, ICR mice, po, 5 mg/kg
[7] = mouse, plasma, ICR mice, po, 5 mg/kg, read-out: Cmax
[8] = mouse, plasma, ICR mice, po, 5 mg/kg, read-out: Tmax

## CCOC(=O)C1=C(CN2CCS(=O)(=O)C[C@H]2C(=O)O)NC(c2nccs2)=N[C@H]1c1ccc(F)cc1Br [Example 2, (R)-4-(((R)-6-(2-bromo-4-fluorophenyl)-5-(ethoxycarbonyl)-2-(thiazol-2-yl)-3,6-dihydropyrimidin-4-yl)methyl)thiomorpholine-3-carboxylic acid 1,1-dioxide]
HBV
  EC50: 6630 nM

## CCOC(=O)C1=C(CN2CC(F)(F)C[C@H]2CCC(=O)O)NC(c2nccs2)=N[C@H]1c1ccc(F)cc1Br [Example 6, 3-((R)-1-(((R)-6-(2-bromo-4-fluorophenyl)-5-(ethoxycarbonyl)-2-(thiazol-2-yl)-3,6-dihydropyrimidin-4-yl)methyl)-4,4-difluoropyrrolidin-2-yl)propanoic acid]
[1]; [2]
  F: 59.3%
[1]; ICR mice, po, 5 mg/kg
  absorption after intragastric administration (in words): rapidly absorbed
[1]; [3]
  clearance: 10.2 mL/min/kg
  half-life: 46.2 min
  AUC(0-t): 3270 ng·h/mL
  AUC(0-inf): 3270 ng·h/mL
  Vd: 0.38 L/kg
[1]; [4]
  Cmax: 6560 ng/mL
[1]; [5]
  Tmax: 4.8 min
[1]; [6]
  half-life: 188 min
  AUC(0-t): 4840 ng·h/mL
  AUC(0-inf): 4850 ng·h/mL
[1]; [7]
  Cmax: 5410 ng/mL
[1]; [8]
  Tmax: 15 min

## CCOC(=O)C1=C(CN2CC(F)(F)C[C@H]2CCC(=O)O)NC(c2nccn2C)=NC1c1ccc(F)cc1Br (stereo partly drawn) [Example 7, 3-((2R)-1-((6-(2-bromo-4-fluorophenyl)-5-(ethoxycarbonyl)-2-(1-methyl-1H-imidazol-2-yl)-3,6-dihydropyrimidin-4-yl)methyl)-4,4-difluoropyrrolidin-2-yl)propanoic acid]
HBV
  EC50: 65 nM

## CCOC(=O)C1=C(CN2CC(F)(F)C[C@H]2CC(C)C(=O)O)NC(c2nccs2)=N[C@H]1c1ccc(F)cc1Br (stereo partly drawn) [Example 8, 3-((R)-1-(((R)-6-(2-bromo-4-fluorophenyl)-5-(ethoxycarbonyl)-2-(thiazol-2-yl)-3,6-dihydropyrimidin-4-yl)methyl)-4,4-difluoropyrrolidin-2-yl)-2-methylpropanoic acid]
[1]; [2]
  F: 69.3%
[1]; ICR mice, po, 5 mg/kg
  absorption after intragastric administration (in words): rapidly absorbed
[1]; [3]
  clearance: 11.5 mL/min/kg
  half-life: 81 min
  AUC(0-t): 2860 ng·h/mL
  AUC(0-inf): 2870 ng·h/mL
  Vd: 0.39 L/kg
[1]; [4]
  Cmax: 5790 ng/mL
[1]; [5]
  Tmax: 4.8 min
[1]; [6]
  half-life: 63 min
  AUC(0-t): 4960 ng·h/mL
  AUC(0-inf): 4970 ng·h/mL
[1]; [7]
  Cmax: 4820 ng/mL
[1]; [8]
  Tmax: 15 min

## CCOC(=O)C1=C(CN2CC(F)(F)C[C@H]2C(C)CC(=O)O)NC(c2nccs2)=N[C@H]1c1ccc(F)cc1Br (stereo partly drawn) [Example 9, 3-((S)-1-(((R)-6-(2-bromo-4-fluorophenyl)-5-(ethoxycarbonyl)-2-(thiazol-2-yl)-3,6-dihydropyrimidin-4-yl)methyl)-4,4-difluoropyrrolidin-2-yl)butanoic acid]
[1]; [2]
  F: 60.2%
[1]; ICR mice, po, 5 mg/kg
  absorption after intragastric administration (in words): rapidly absorbed
[1]; [3]
  clearance: 10.3 mL/min/kg
  half-life: 82.2 min
  AUC(0-t): 3230 ng·h/mL
  AUC(0-inf): 3240 ng·h/mL
  Vd: 0.33 L/kg
[1]; [4]
  Cmax: 6270 ng/mL
[1]; [5]
  Tmax: 4.8 min
[1]; [6]
  half-life: 63.6 min
  AUC(0-t): 4860 ng·h/mL
  AUC(0-inf): 4870 ng·h/mL
[1]; [7]
  Cmax: 5460 ng/mL
[1]; [8]
  Tmax: 15 min

## CCOC(=O)C1=C(CN2CC(F)(F)C[C@H]2CCC(=O)O)NC(c2nccs2)=N[C@H]1c1ccc(F)cc1Cl [Example 12, 3-((R)-1-(((R)-6-(2-chloro-4-fluorophenyl)-5-(ethoxycarbonyl)-2-(thiazol-2-yl)-3,6-dihydropyrimidin-4-yl)methyl)-4,4-difluoropyrrolidin-2-yl)propanoic acid]
HBV
  EC50: 98 nM

## CCOC(=O)C1=C(CN2CC(F)(F)C[C@H]2CCC(=O)O)NC(c2nccs2)=N[C@H]1c1ccc(Cl)cc1Cl [Example 13, 3-((R)-1-(((R)-6-(2,4-dichlorophenyl)-5-(ethoxycarbonyl)-2-(thiazol-2-yl)-3,6-dihydropyrimidin-4-yl)methyl)-4,4-difluoropyrrolidin-2-yl)propanoic acid]
HBV
  EC50: 64 nM

## COC(=O)C1=C(CN2CC(F)(F)C[C@H]2CCC(=O)O)NC(c2nccs2)=N[C@H]1c1ccc(F)cc1Br [Example 14, 3-((R)-1-(((R)-6-(2-bromo-4-fluorophenyl)-5-(methoxycarbonyl)-2-(thiazol-2-yl)-3,6-dihydropyrimidin-4-yl)methyl)-4,4-difluoropyrrolidin-2-yl)propanoic acid]
HBV
  EC50: 80 nM

## COC(=O)C1=C(CN2CC(F)(F)C[C@H]2CCC(=O)O)NC(c2nccs2)=N[C@H]1c1ccc(F)cc1Cl [Example 15, 3-((R)-1-(((R)-6-(2-chloro-4-fluorophenyl)-5-(methoxycarbonyl)-2-(thiazol-2-yl)-3,6-dihydropyrimidin-4-yl)methyl)-4,4-difluoropyrrolidin-2-yl)propanoic acid]
HBV
  EC50: 94 nM

## COC(=O)C1=C(CN2CC(F)(F)C[C@H]2CCC(=O)O)NC(c2nccs2)=N[C@H]1c1ccc(Cl)cc1Cl [Example 16, 3-((R)-1-(((R)-6-(2,4-dichlorophenyl)-5-(methoxycarbonyl)-2-(thiazol-2-yl)-3,6-dihydropyrimidin-4-yl)methyl)-4,4-difluoropyrrolidin-2-yl)propanoic acid]
HBV
  EC50: 62 nM

## CCOC(=O)C1=C(CN2CC(F)(F)C[C@@H]2CCC(=O)O)NC(c2nccs2)=N[C@H]1c1ccc(F)cc1Br [Example 17, 3-((S)-1-(((R)-6-(2-bromo-4-fluorophenyl)-5-(ethoxycarbonyl)-2-(thiazol-2-yl)-3,6-dihydropyrimidin-4-yl)methyl)-4,4-difluoropyrrolidin-2-yl)propanoic acid]
HBV
  EC50: 12 nM

## COC(=O)C1=C(CN2CC(F)(F)C[C@@H]2CCC(=O)O)NC(c2nccs2)=N[C@H]1c1ccc(F)cc1Br [Example 18, 3-((S)-1-(((R)-6-(2-bromo-4-fluorophenyl)-5-(methoxycarbonyl)-2-(thiazol-2-yl)-3,6-dihydropyrimidin-4-yl)methyl)-4,4-difluoropyrrolidin-2-yl)propanoic acid]
HBV
  EC50: 14 nM

## CCOC(=O)C1=C(CN2CC(F)(F)C[C@@H]2CCC(=O)O)NC(c2nccs2)=N[C@H]1c1ccc(F)cc1Cl [Example 19, 3-((S)-1-(((R)-6-(2-chloro-4-fluorophenyl)-5-(ethoxycarbonyl)-2-(thiazol-2-yl)-3,6-dihydropyrimidin-4-yl)methyl)-4,4-difluoropyrrolidin-2-yl)propanoic acid]
HBV
  EC50: 20 nM

## COC(=O)C1=C(CN2CC(F)(F)C[C@@H]2CCC(=O)O)NC(c2nccs2)=N[C@H]1c1ccc(F)cc1Cl [Example 20, 3-((S)-1-(((R)-6-(2-chloro-4-fluorophenyl)-5-(methoxycarbonyl)-2-(thiazol-2-yl)-3,6-dihydropyrimidin-4-yl)methyl)-4,4-difluoropyrrolidin-2-yl)propanoic acid]
HBV
  EC50: 17 nM

## CCOC(=O)C1=C(CN2CC(F)C(C)(C)C2CCC(=O)O)NC(c2nccs2)=N[C@H]1c1ccc(F)cc1Br (stereo partly drawn) [Example 39, 3-(1-(((R)-6-(2-bromo-4-fluorophenyl)-5-(ethoxycarbonyl)-2-(thiazol-2-yl)-3,6-dihydropyrimidin-4-yl)methyl)-4-fluoro-3,3-dimethylpyrrolidin-2-yl)propanoic acid]
[1]; [2]
  F: 86.1%
[1]; ICR mice, po, 5 mg/kg
  absorption after intragastric administration (in words): rapidly absorbed
[1]; [3]
  clearance: 5.67 mL/min/kg
  half-life: 193 min
  AUC(0-t): 5800 ng·h/mL
  AUC(0-inf): 5810 ng·h/mL
  Vd: 0.73 L/kg
[1]; [4]
  Cmax: 4260 ng/mL
[1]; [5]
  Tmax: 4.8 min
[1]; [6]
  half-life: 133 min
  AUC(0-t): 12500 ng·h/mL
  AUC(0-inf): 12500 ng·h/mL
[1]; [7]
  Cmax: 4900 ng/mL
[1]; [8]
  Tmax: 30 min

## CCOC(=O)C1=C(CN2CCOCC2)NC(c2nccs2)=NC1c1ccc(F)cc1Br (centres unmarked) [R, Ethyl4-(2-bromo-4-fluorophenyl)-2-(thiazol-2-yl)-6-((4-morpholino)methyl)-1,4-dihydropyrimidine-5-carboxylate, reference compound]
[1]; mouse, in vivo
  F: 7.75%
[1]; mouse, in vivo, iv, 2 mg/kg
  AUCINF: 381.2 ng·h/mL
  AUClast: 379.13 ng·h/mL
  CL: 5.25 L/h/kg
  Cmax: 654.37 ng/mL
  Tmax: 4.98 min
  Vss: 7.91 L/kg
  t1/2: 2.87 h
[1]; mouse, in vivo, po, 10 mg/kg
  AUCINF: 147.71 ng·h/mL
  AUClast: 145.05 ng·h/mL
  Cmax: 78.2 ng/mL
  Tmax: 15 min
  t1/2: 3.69 h

Source: patent US9498479B2, “Dihydropyrimidine compounds and their application in pharmaceuticals” (SUNSHINE LAKE PHARMA CO., LTD., priority 2013, dated 2016)
